For this data set, the system named is mdx mice. Briefly: Muscle function in mouse muscular dystrophy model (mdx): voluntary wheel activity, EDL specific force. The data set is classed as in vivo. The method, then:
Voluntary activity on wheel, body weight, and average water consumption were measured in the first 3 weeks. Specific muscle force was measured after 4 weeks of treatment, at the end of the study.
Distance traveled (Km/day) over a 24 hr period was analyzed as an index of improved functional activity (see, DMD_M.2.1.002 SOP at http://www.treat-nmd.eu/). At the conclusion of the study, Extensor digitorum longus (EDL) muscle was isolated for muscle force analysis as further described hereinbelow. Blood was collected from each mouse by retro-orbital bleeds at the end of the study (after end of dark cycle—about 7 AM) to assess drug plasma concentrations. Experiments were blinded.
At the end of the study, EDL muscle was dissected from hind limbs for isometric force analysis using the 407A Muscle Test System from Aurora Scientific (Aurora, Ontario, Canada). A 6-0 suture were tied to each tendon and the entire EDL muscle, tendon to tendon, was transferred to a Ragnoti bath of O2/CO2 (95%/5%) bubbled Tyrode solution (in mM: NaCl 121, KCl 5.0, CaCl2 1.8, MgCl2, NaH2PO4, NaHCO3 24, and glucose 5.5). Using the sutures, one tendon was tied vertically to a stainless steel hook connected to a force transducer The other sutured tendon was clamped down into a moving arm on the Aurora system. The EDL muscle was stimulated to contract using an electrical field between two platinum electrodes. At the start of each experiment, muscle length was adjusted to yield the maximum force. Force-frequency relationships were determined by triggering contraction using incremental stimulation frequencies (5-250 Hz for 200 ms at suprathreshold voltage). Between stimulations the muscle was allowed to rest ˜3 min. At the end of the force measurement, the length (Lo) of the EDL muscle while sutured in the Aurora system was measured excluding the tendons. The EDL muscle was then removed from the system and weighed after clipping the end tendons and sutures off. The EDL muscle was then frozen in liquid nitrogen. The cross-sectional area (mm^2) of the EDL muscle was calculated by dividing the EDL muscle weight by the EDL muscle length and the mammalian muscle density constant of […] (Yamada, T., et al. Arthritis and rheumatism 60:3280-3289). To determine EDL specific force (kN/m^2), the absolute tetanic force was divided by the EDL muscle cross-sectional area.
For statistical analysis of distance traveled, change from baseline was calculated for each day by subtracting the baseline value (defined as the mean of the two measurements obtained on Day −1 and Day −2) from each post dose assessment. Change from baseline was then statistically analyzed with a repeated measures analysis of variance model with fixed effects for treatment, day and treatment by day interaction. Baseline was included as a covariate and mouse was included as a random effect. The most appropriate covariance structure was determined through investigation of the Akaike's Information Criterion (AIC) and Bayesian Information Criterion (BIC). The covariance structures investigated were autoregressive, compound symmetry, unstructured, and toeplitz. The optimal covariance structure selected was compound symmetry. From the model, point estimates and associated 95% confidence intervals (CI) for the difference in change from baseline between each ARM210 treated mice group and vehicle treated group (for both mdx and C57BL/6 mice) were obtained for each day, each week, and the entire assessment period from Day 1 to Day 19. As this study is exploratory in nature, no adjustments in multiple comparisons were made.
Specific force was analyzed using a repeated measures analysis of variance model with fixed effects for treatment, frequency and treatment by frequency interaction and mouse as a random effect. Similar to the analysis described above, the optimal covariance structure was chosen from among autoregressive, compound symmetry, unstructured, and toeplitz. […]

[1] abbreviates: mdx and WT mice, drinking water.

The structures appear in SMILES notation.

For `COc1ccc2c(c1)CN(Cc1ccc(C(=O)O)cc1)CCS2` [Compound 1, 4-((7-Methoxy-2,3-dihydrobenzo[f][1,4]thiazepin-4(5H)-yl)methyl)benzoic acid], under setting [1], the body weight result is reported as “did not affect” and the water consumption result was “No dose-dependent effects”. Moreover, the “specific muscle force (EDL)” value (mdx mice, 50 mg/kg/d, stimulation frequencies of 150 Hz and above, P<0.05) is “statistically significant increase”. For the same compound, the “specific force of EDL muscle” value (mdx mice, 5, 10 and 50 mg/kg/d, 4 weeks) is recorded as “increased specific force in mdx muscle dose-dependently”. The “distance traveled on voluntary wheel” value (mdx mice, 10 and 50 mg/kg/d (target dose) sodium salt in drinking water, day 1 to day 19, vs vehicle, P<0.001) is on record as “significantly longer distances”. Also, the “time to treatment effect on wheel activity after treatment initiation” value (mdx mice, drinking water) lay in the range of 2 to 3 days.

For the origin of these results see US20130281512A1, “AGENTS FOR TREATING DISORDERS INVOLVING MODULATION OF RYANODINE RECEPTORS” (LES LABORATOIRES SERVIER, priority 2012, published 2013).
